Measured values: PubChem BioAssay (NCI)
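Test compounds were applied to cells in 96-well plates for 48 hours at 5 doses. GI50 = concentration required for 50% inhibition of growth. TGI is the concentration that stops growth completely.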

How the values were obtained:
Experiment in all cases: growth of human tumour cells (NCI), 48 h; in the data active = GI50 below about 0.43 µM; inactive = the rest
NCI-H23 lung = system: NCI-H23 lung
OVCAR-5 ovarian = system: OVCAR-5 ovarian
ACHN renal = system: ACHN renal
RXF 393 renal = system: RXF 393 renal
SK-MEL-28 melanoma = system: SK-MEL-28 melanoma
EKVX NSCLC = system: EKVX NSCLC
SK-MEL-5 melanoma = system: SK-MEL-5 melanoma
SW-620 colon = system: SW-620 colon
UO-31 renal = system: UO-31 renal
MOLT-4 leukemia = system: MOLT-4 leukemia
SNB-19 CNS = system: SNB-19 CNS
UACC-257 melanoma = system: UACC-257 melanoma
RXF-631 renal = system: RXF-631 renal
DMS 114 small cell lung = system: DMS 114 small cell lung
CCRF-CEM leukemia = system: CCRF-CEM leukemia
SK-MEL-2 melanoma = system: SK-MEL-2 melanoma
MALME-3M melanoma = system: MALME-3M melanoma
SK-OV-3 ovarian = system: SK-OV-3 ovarian
LOX IMVI melanoma = system: LOX IMVI melanoma
HOP-62 NSCLC = system: HOP-62 NSCLC
IGROV1 ovarian = system: IGROV1 ovarian
M19-MEL melanoma = system: M19-MEL melanoma
NCI-H522 lung = system: NCI-H522 lung
HT29 colon = system: HT29 colon
OVCAR-4 ovarian = system: OVCAR-4 ovarian
OVCAR-8 ovarian = system: OVCAR-8 ovarian
SN12C renal = system: SN12C renal
TK-10 renal = system: TK-10 renal
COLO 205 colon = system: COLO 205 colon
DMS 273 small cell lung = system: DMS 273 small cell lung
CAKI-1 renal = system: CAKI-1 renal
RPMI-8226 leukemia = system: RPMI-8226 leukemia
SNB-78 CNS = system: SNB-78 CNS
UACC-62 melanoma = system: UACC-62 melanoma
A498 renal = system: A498 renal
M14 melanoma = system: M14 melanoma
A549 NSCLC = system: A549 NSCLC
SF-295 CNS = system: SF-295 CNS
OVCAR-3 ovarian = system: OVCAR-3 ovarian
DLD-1 colon = system: DLD-1 colon
786-0 renal = system: 786-0 renal
SNB-75 CNS = system: SNB-75 CNS
K-562 leukemia = system: K-562 leukemia
NCI-H226 lung = system: NCI-H226 lung
SF-268 CNS = system: SF-268 CNS
HCT-116 colon = system: HCT-116 colon
U251 CNS = system: U251 CNS
KM12 colon = system: KM12 colon
SF-539 CNS = system: SF-539 CNS
KM20L2 colon = system: KM20L2 colon
NCI-H460 lung = system: NCI-H460 lung
LXFL 529 NSCLC = system: LXFL 529 NSCLC
HCT-15 colon = system: HCT-15 colon
HOP-18 NSCLC = system: HOP-18 NSCLC
HCC-2998 colon = system: HCC-2998 colon
HL-60(TB) leukemia = system: HL-60(TB) leukemia
HOP-92 NSCLC = system: HOP-92 NSCLC
SR leukemia = system: SR leukemia

CCC[CH2][Sn]([CH2]CCC)([O]C(=O)c1cc(OC)c(OC)c(OC)c1)[O]C(=O)c1cc(OC)c(OC)c(OC)c1
2720 nM: TGI (SW-620 colon)
1120 nM: TGI (RXF 393 renal)
2470 nM: TGI (UACC-257 melanoma)
2830 nM: TGI (M14 melanoma)
2900 nM: TGI (OVCAR-4 ovarian)
9210 nM: TGI (NCI-H460 lung)
1560 nM: TGI (NCI-H23 lung)
4110 nM: TGI (MOLT-4 leukemia)
2550 nM: TGI (U251 CNS)
1310 nM: TGI (CAKI-1 renal)
2730 nM: TGI (IGROV1 ovarian)
862 nM: TGI (CCRF-CEM leukemia)
3450 nM: TGI (HOP-62 NSCLC)
3830 nM: TGI (OVCAR-5 ovarian)
3680 nM: TGI (SN12C renal)
2950 nM: TGI (DMS 273 small cell lung)
3020 nM: TGI (TK-10 renal) | TGI (A498 renal)
1540 nM: TGI (SNB-19 CNS) | TGI (DMS 114 small cell lung)
3250 nM: TGI (SK-OV-3 ovarian)
2480 nM: TGI (SF-268 CNS)
4690 nM: TGI (EKVX NSCLC)
3010 nM: TGI (KM12 colon)
2770 nM: TGI (LOX IMVI melanoma)
1990 nM: TGI (SK-MEL-28 melanoma) | TGI (K-562 leukemia)
2590 nM: TGI (COLO 205 colon) | TGI (OVCAR-3 ovarian) | TGI (NCI-H226 lung)
2970 nM: TGI (SK-MEL-5 melanoma)
4500 nM: TGI (RPMI-8226 leukemia)
1580 nM: TGI (SNB-78 CNS)
2170 nM: TGI (MALME-3M melanoma)
1290 nM: TGI (SNB-75 CNS)
2460 nM: TGI (DLD-1 colon)
2980 nM: TGI (ACHN renal)
2570 nM: TGI (786-0 renal)
2310 nM: TGI (SK-MEL-2 melanoma)
1830 nM: TGI (RXF-631 renal)
2660 nM: TGI (HCT-116 colon)
3330 nM: TGI (HT29 colon)
2610 nM: TGI (UO-31 renal)
2020 nM: TGI (M19-MEL melanoma)
inactive: GI50 (NCI-H23 lung) 437 nM | GI50 (OVCAR-5 ovarian) 2320 nM | GI50 (ACHN renal) 1590 nM | GI50 (SK-MEL-28 melanoma) 633 nM | GI50 (EKVX NSCLC) 1950 nM | GI50 (SK-MEL-5 melanoma) 1490 nM | GI50 (SW-620 colon) 973 nM | GI50 (UO-31 renal) 1330 nM | GI50 (MOLT-4 leukemia) 505 nM | GI50 (SNB-19 CNS) 464 nM | GI50 (UACC-257 melanoma) 1090 nM | GI50 (RXF-631 renal) 530 nM | GI50 (SK-MEL-2 melanoma) 1100 nM | GI50 (MALME-3M melanoma) 946 nM | GI50 (SK-OV-3 ovarian) 1690 nM | GI50 (LOX IMVI melanoma) 695 nM | GI50 (HOP-62 NSCLC) 2010 nM | GI50 (IGROV1 ovarian) 1320 nM | GI50 (M19-MEL melanoma) 749 nM | GI50 (HT29 colon) 1690 nM | GI50 (OVCAR-4 ovarian) 1480 nM | GI50 (OVCAR-8 ovarian) 1500 nM | GI50 (SN12C renal) 1510 nM | GI50 (TK-10 renal) 1580 nM | GI50 (COLO 205 colon) 1220 nM | GI50 (DMS 273 small cell lung) 1350 nM | GI50 (RPMI-8226 leukemia) 445 nM | GI50 (SNB-78 CNS) 453 nM | GI50 (UACC-62 melanoma) 892 nM | GI50 (A498 renal) 1170 nM | GI50 (M14 melanoma) 1420 nM | GI50 (A549 NSCLC) 3590 nM | GI50 (SF-295 CNS) 1600 nM | GI50 (OVCAR-3 ovarian) 1260 nM | GI50 (DLD-1 colon) 1210 nM | GI50 (786-0 renal) 1290 nM | GI50 (NCI-H226 lung) 1210 nM | GI50 (SF-268 CNS) 1210 nM | GI50 (HCT-116 colon) 1370 nM | GI50 (U251 CNS) 1280 nM | GI50 (KM12 colon) 1450 nM | GI50 (SF-539 CNS) 788 nM | GI50 (KM20L2 colon) 1800 nM | GI50 (NCI-H460 lung) 2960 nM
3370 nM: TGI (OVCAR-8 ovarian)
3190 nM: TGI (SF-295 CNS)
active: GI50 (RXF 393 renal) 297 nM | GI50 (DMS 114 small cell lung) 404 nM | GI50 (CCRF-CEM leukemia) 250 nM | GI50 (NCI-H522 lung) 191 nM | GI50 (CAKI-1 renal) 300 nM | GI50 (SNB-75 CNS) 169 nM | GI50 (K-562 leukemia) 290 nM | GI50 (LXFL 529 NSCLC) 215 nM
13800 nM: TGI (A549 NSCLC)
536 nM: TGI (LXFL 529 NSCLC)
3300 nM: TGI (KM20L2 colon)
348 nM: TGI (NCI-H522 lung)
2120 nM: TGI (UACC-62 melanoma) | TGI (SF-539 CNS)

S=C1CNC(=S)CN1
> 100000 nM: TGI (HCT-15 colon) | TGI (OVCAR-5 ovarian) | TGI (ACHN renal) | TGI (RXF 393 renal) | TGI (HOP-18 NSCLC) | TGI (SK-MEL-28 melanoma) | TGI (SK-MEL-5 melanoma) | TGI (SW-620 colon) | TGI (UO-31 renal) | TGI (MOLT-4 leukemia) | TGI (SNB-19 CNS) | TGI (UACC-257 melanoma) | TGI (RXF-631 renal) | TGI (DMS 114 small cell lung) | TGI (CCRF-CEM leukemia) | TGI (SK-MEL-2 melanoma) | TGI (MALME-3M melanoma) | TGI (SK-OV-3 ovarian) | TGI (LOX IMVI melanoma) | TGI (HOP-62 NSCLC) | TGI (IGROV1 ovarian) | TGI (M19-MEL melanoma) | TGI (NCI-H522 lung) | TGI (HT29 colon) | TGI (OVCAR-4 ovarian) | TGI (HCC-2998 colon) | TGI (OVCAR-8 ovarian) | TGI (SN12C renal) | TGI (TK-10 renal) | TGI (COLO 205 colon) | TGI (DMS 273 small cell lung) | TGI (CAKI-1 renal) | TGI (RPMI-8226 leukemia) | TGI (SNB-78 CNS) | TGI (UACC-62 melanoma) | TGI (A498 renal) | TGI (M14 melanoma) | TGI (A549 NSCLC) | TGI (SF-295 CNS) | TGI (OVCAR-3 ovarian) | TGI (DLD-1 colon) | TGI (786-0 renal) | TGI (HL-60(TB) leukemia) | TGI (SNB-75 CNS) | TGI (HOP-92 NSCLC) | TGI (K-562 leukemia) | TGI (NCI-H226 lung) | TGI (SF-268 CNS) | TGI (HCT-116 colon) | TGI (U251 CNS) | TGI (SR leukemia) | TGI (KM12 colon) | TGI (SF-539 CNS) | TGI (KM20L2 colon) | TGI (NCI-H460 lung) | TGI (LXFL 529 NSCLC)

Cn1nc(-c2ccccc2)c(C(=O)/C=C/c2ccccc2)c(N2CCCCC2)c1=O
42800 nM: TGI (HOP-62 NSCLC)
73100 nM: TGI (RXF 393 renal)
12300 nM: TGI (HL-60(TB) leukemia)
> 100000 nM: TGI (HCT-15 colon) | TGI (NCI-H23 lung) | TGI (ACHN renal) | TGI (HOP-18 NSCLC) | TGI (EKVX NSCLC) | TGI (SK-MEL-5 melanoma) | TGI (SW-620 colon) | TGI (UO-31 renal) | TGI (MOLT-4 leukemia) | TGI (SNB-19 CNS) | TGI (RXF-631 renal) | TGI (DMS 114 small cell lung) | TGI (CCRF-CEM leukemia) | TGI (SK-OV-3 ovarian) | TGI (LOX IMVI melanoma) | TGI (IGROV1 ovarian) | TGI (NCI-H522 lung) | TGI (OVCAR-8 ovarian) | TGI (SN12C renal) | TGI (TK-10 renal) | TGI (COLO 205 colon) | TGI (DMS 273 small cell lung) | TGI (UACC-62 melanoma) | TGI (M14 melanoma) | TGI (A549 NSCLC) | TGI (DLD-1 colon) | TGI (786-0 renal) | TGI (K-562 leukemia) | TGI (SF-268 CNS) | TGI (HCT-116 colon) | TGI (U251 CNS) | TGI (SF-539 CNS) | TGI (KM20L2 colon) | TGI (NCI-H460 lung) | TGI (LXFL 529 NSCLC)
69000 nM: TGI (HT29 colon)
62800 nM: TGI (SK-MEL-28 melanoma)
86700 nM: TGI (HOP-92 NSCLC)
60100 nM: TGI (CAKI-1 renal)
